Read-outs that look alike come from different tables or passages of the source.
Columns and labels:
[1] = tested on: tubulin; details: reported by David et al.; cited from earlier work
[2] = tested on: tubulin; assay: Polymer formation without GTP at 0 °C; type: biochemical, bovine; details: no GTP; for % tubulin in polymer ± SE: single compound 30 μM, 20 min, 1.0 mg/mL tubulin; for spiral formation (centrifugation study, Fig. 7A): 10 μM tubulin, concentrations up to 30 μM
[3] = tested on: tubulin; assay: Inhibition of MAP-dependent microtubule assembly; type: biochemical, bovine
[4] = tested on: αβ-tubulin dimer; assay: Binding of radiolabeled compounds to αβ-tubulin dimer; parameters: species or system bovine; details: radiolabeled compound
[5] = tested on: tubulin; type: binding, bovine; details: for maximum stoichiometry of compound incorporation into aberrant polymer: 80 μM compound; for compound incorporated into induced polymers, as little as: substoichiometric reactions (abstract)
[6] = molecular target: tubulin (Bos taurus, UniProt P81947+Q6B856); assay: Aberrant tubulin assembly; details: for extent of aberrant assembly reaction (turbidity), % of its maximum: within 20 min at 0 °C, 10 μM compound, 10 μM tubulin, 0.6 M glutamate, 1.0 mM MgCl2, 50 μM GTP
Sequence of tubulin (Bos taurus, UniProt P81947+Q6B856) (P81947 whole entry): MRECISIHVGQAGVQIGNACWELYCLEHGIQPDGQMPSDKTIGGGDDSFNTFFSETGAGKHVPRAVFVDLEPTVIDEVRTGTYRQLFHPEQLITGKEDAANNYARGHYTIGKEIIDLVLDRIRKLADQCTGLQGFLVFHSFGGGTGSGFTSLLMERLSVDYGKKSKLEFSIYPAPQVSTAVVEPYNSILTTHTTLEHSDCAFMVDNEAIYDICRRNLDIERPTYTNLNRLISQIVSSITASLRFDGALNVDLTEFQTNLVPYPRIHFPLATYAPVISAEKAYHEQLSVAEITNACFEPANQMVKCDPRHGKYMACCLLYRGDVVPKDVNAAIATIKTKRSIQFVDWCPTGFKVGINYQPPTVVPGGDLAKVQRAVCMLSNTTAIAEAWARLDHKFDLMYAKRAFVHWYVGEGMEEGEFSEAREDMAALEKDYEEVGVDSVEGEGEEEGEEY
Sequence of tubulin (Bos taurus, UniProt P81947+Q6B856) (Q6B856 whole entry): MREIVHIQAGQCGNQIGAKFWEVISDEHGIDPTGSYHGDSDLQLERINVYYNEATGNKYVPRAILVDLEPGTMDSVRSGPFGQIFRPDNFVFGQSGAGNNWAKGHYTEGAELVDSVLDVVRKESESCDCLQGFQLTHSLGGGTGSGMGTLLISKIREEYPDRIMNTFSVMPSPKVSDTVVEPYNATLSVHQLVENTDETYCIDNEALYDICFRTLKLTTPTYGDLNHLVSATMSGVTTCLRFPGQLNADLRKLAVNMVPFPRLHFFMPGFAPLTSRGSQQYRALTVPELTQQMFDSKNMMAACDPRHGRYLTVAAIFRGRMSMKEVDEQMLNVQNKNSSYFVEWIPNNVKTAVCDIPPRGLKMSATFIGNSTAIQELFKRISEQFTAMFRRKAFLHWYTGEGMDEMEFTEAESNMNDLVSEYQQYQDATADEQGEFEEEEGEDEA

[7] = tested on: cultured cells; details: cited from earlier work
[8] = 5 μM compound, 10 μM tubulin, 22 °C, 30 min
[9] = 10 μM radiolabeled ligand alone (Table 3)
[10] = compound and tubulin equimolar (10 μM each)

COc1cc2cc(c1Cl)N(C)C(=O)C[C@H](OC(=O)[C@H](C)N(C)C(C)=O)[C@]1(C)O[C@H]1[C@H](C)[C@@H]1C[C@@](O)(NC(=O)O1)[C@H](OC)/C=C/C=C(\C)C2 [Maytansine]
inhibition of (−)-rhazinilam aberrant assembly reaction [1]: inhibited

N#Cc1c(-c2ccccc2)c(-c2ccccc2)nn(Cc2nn[nH]n2)c1=O [NSC 608593]
% tubulin in polymer ± SE [2]: 0 ± 1%

Cc1nn(CC(=O)O)c(=O)c(C#N)c1-c1ccccc1 [NSC 608600]
effect on microtubule assembly [3]: no significant effect on microtubule assembly

Cc1c(-c2ccccc2)nn(CC(=O)O)c(=O)c1C#N [NSC 608602]
effect on microtubule assembly [3]: no significant effect on microtubule assembly

N#Cc1c(-c2ccc(F)cc2)c(-c2ccc(F)cc2)nn(Cc2nn[nH]n2)c1=O [NSC 613241]
binding to the αβ-tubulin dimer [4]: unable to demonstrate binding | % of the tubulin in polymer pellet [5, 8]: 73% | % tubulin recovered in pellet ([5]; 10 μM [3H](−)-rhazinilam plus 80 μM nonradiolabeled inhibitor): 89 ± 6.4% | % tubulin recovered in pellet [5, 9]: 72 ± 5.4% | Ligand bound/tubulin in aberrant polymer ± SD ([5]; 10 μM radiolabeled ligand alone, 22 °C, 30 min (Table 3)): 0.15 ± 0.013 | % of the tubulin in polymer pellet ([5]; 20 μM compound, 10 μM tubulin): about 90% | % of the tubulin in polymer ([5]; 40 μM compound, 10 μM tubulin): ~100% | stoichiometry of compound to tubulin in the pellets ([5]; 40 μM compound, 10 μM tubulin): 0.42 | maximum stoichiometry of compound incorporation into aberrant polymer ([5]; 10 μM tubulin): 0.62 | stoichiometry of compound to tubulin in the pellets [5, 10]: 0.11 | compound incorporated into induced polymers, as little as [5]: 0.1–0.2 mol compound/mol of tubulin | spiral formation (centrifugation study, Fig. 7A) [2]: minimal | % tubulin in polymer ± SE [2]: 0 ± 2% | delay of aberrant assembly after addition of compound ([6]; 0 °C, 0.6 M monosodium glutamate, 50 μM GTP, 1 mM MgCl2, 2% dimethyl sulfoxide): about 1 min | extent of aberrant assembly reaction (turbidity), % of its maximum [6]: 30–35%

CC[C@]1(O)C[C@@H]2CN(CCc3c([nH]c4ccccc34)[C@@](C(=O)OC)(c3cc4c(cc3OC)N(C)[C@H]3[C@@](O)(C(=O)OC)[C@H](OC(C)=O)[C@]5(CC)C=CCN6CC[C@]43[C@@H]65)C2)C1 [Vinblastine]
inhibition of (−)-rhazinilam aberrant assembly reaction [1]: inhibited

(−)-Rhazinilam [reference compound]
IC50 values in treated cells [7]: low μM range | binding to the αβ-tubulin dimer [4]: unable to demonstrate binding | % of the tubulin in polymer pellet [5, 8]: 53% | % tubulin recovered in pellet ([5]; 10 μM [3H]NSC 613241 plus 80 μM nonradiolabeled inhibitor): 95 ± 5.2% | % tubulin recovered in pellet [5, 9]: 37 ± 5.1% | % of the tubulin in polymer pellet ([5]; 20 μM compound, 10 μM tubulin): about 90% | % of the tubulin in polymer ([5]; 40 μM compound, 10 μM tubulin): ~100% | stoichiometry of compound to tubulin in the pellets ([5]; 40 μM compound, 10 μM tubulin): 0.47 | maximum stoichiometry of compound incorporation into aberrant polymer ([5]; 10 μM tubulin): 0.68 | stoichiometry of compound to tubulin in the pellets [5, 10]: 0.13 | compound incorporated into induced polymers, as little as [5]: 0.1–0.2 mol compound/mol of tubulin | spiral formation (centrifugation study, Fig. 7A) [2]: minimal | % tubulin in polymer ± SE [2]: 0 ± 2% | extent of aberrant assembly reaction (turbidity), % of its maximum [6]: little or no change in turbidity
